Measured values: patent US20160279135A1, “THERAPIES FOR TREATING MYELOPROLIFERATIVE DISORDERS” (Gilead Sciences, Inc., priority 2013, published 2016)
“And” between values parts separate entries of the source, which are not always exact repeats. Equal entries are not always repeated.

Assays:
[1] = clinical; conditions: human, in vivo
Description: For in vitro or in vivo studies, the effect amount of Compounds A, B, C, D, E, or ruxolinitib may be adjusted according to the experimental condition. Similarly, the effect amount of Compounds D1, D2, D3, D4, D5, D6, D7, D8, D9, E1, E2, E3, E4, E5, E6, E7, E8, E9, or F, may be adjusted according to the experimental condition for in vitro or in vivo studies. For example, compounds may be used in the amount of 0.001, 0.002, 0.003, 0.004, 0.005, 0.006, 0.007, 0.008, 0.009, 0.01, 0.02, 0.03, 0.04, 0.05, 0.06, 0.07, 0.08, 0.09, 0.1, 0.2, 0.3, 0.4, 0.5, 0.6, 0.7, 0.8, 0.9, 1.0, 1.5, 2.0, 2.5, 3.0, 3.5, 4.0, 5.0, 6.0, 7.0, 8.0, 9.0, or 10.0 μM. In some studies, the in vitro doses of the compounds may be calculated to correspond to the clinical doses of the compounds. The calculation may consider various factors, such as protein binding and plasma concentration. […] It is understood that the in vitro doses may differ, depend on the assay condition and other calculation factors, and that the clinical doses may differ depend on the disease indication and the patient condition.
(§1) In this study, PBMCs were isolated from the whole blood from five MF patients receiving chronic ruxolitinib treatment (rux 1-rux 5). The cells were treated with either vehicle, ruxolitinib, and/or Compound B for 2 hours then stimulated with TPO (50 ng/mL) for 10 minutes. Ruxolitinib at the dose of 1 or 20 nM and Compound B at the dose of 45, 200, or 700 nM were used.
Next, Pfeiffer cells were treated with IL6 (0 or 3 ng/mL), Compound A (0, 136, 272, or 695 nM), and/or Compound B (0, 74, 200, or 421 nM) (n=4 per group) for 96 hours. The doses in this assay may correspond to those used in a clinical setting. […] In addition, the in-vitro dose of 136 nM Compound A may correspond to the potential Caverage detected in patients receiving Compound A at 300 mg once a day.

[2] = tested on: Pfeiffer cells; assay: CellTiter-Glo cell viability of Pfeiffer cells with IL6; type: cell-based; conditions: Homo sapiens, 96 h, IL6 3 ng/mL, n=4, read-out: percentage of viable Pfeiffer cells, AVG
Procedure: Next, Pfeiffer cells were treated with IL6 (0 or 3 ng/mL), Compound A (0, 136, 272, or 695 nM), and/or Compound B (0, 74, 200, or 421 nM) (n=4 per group) for 96 hours.
Cellular viability was determined using the CellTiter-Glo Luminescent Cell Viability Assay (Promega). The percentage of viable cells was normalized to the groups that were not treated with Compound A or Compound B, and standard deviation was calculated.

[3] = tested on: p-STAT5; assay: flow cytometry of p-STAT5 in TPO-stimulated CD34+ cells from MF patients on chronic ruxolitinib (Example 8); type: cell-based, human; conditions: 2 h, then TPO 50 ng/mL, one value per patient, TPO vehicle = 100
Procedure: as §1
(§2) The treated cells were then fixed, permeabilized and stained for FACS analysis using FACSCalibur analyzed using BD FACSDiva software.

[4] = tested on: p-S6RP; assay: flow cytometry of p-S6RP in TPO-stimulated CD34+ cells from MF patients on chronic ruxolitinib (Example 8); type: cell-based, human; conditions: for percentage of the p-S6RP levels: 2 h, then TPO 50 ng/mL, one value per patient, TPO vehicle = 100
Procedure: as §1, §2

[5] = tested on: p-AKT Ser473; assay: flow cytometry of AKT phosphorylation in CD34+ progenitor cells from MF patients; type: cell-based, human; conditions: 2 h, MF progenitor cells
Procedure: (§3) In this example, PBMCs were isolated from whole blood of myelofibrosis (MF) patients who had not received treatments (i.e. naïve patients) or received ruxolitinib (i.e. rux-treated patients). The cells were treated with 0.02, 0.2, or 2.0 μM of Compound B or vehicle (0.1% DMSO in 0.1% FBS/RPMI) for 2 hours at 37° C. The cells were then fixed, permeabilized, and stained for FACS analysis. Antibodies specific to p-AKT Ser473 and pS6RP Ser235/236 were used to detect AKT phosphorylation (p-AKT) and S6RP phosphorylation (p-S6RP) in CD34^+/CD3^−/CD14^−/CD19/CD66^− (BD Biosciences) gated cells using flow cytometry. The percentage of basal (i.e. untreated with TPO) AKT and S6RP phosphorylation were normalized to vehicle control (i.e. “no TPO” values shown in Table 2). A two-tailed paired t-test (GraphPad Prism) was used to calculate p-values. Values of p<0.05 were considered significant.
(§4) Also, PBMC cells were treated with Compound B and with TPO as described above. The percentage of TPO-activated AKT and S6RP phosphorylation were normalized to those of TPO-treated vehicle. […] Also, the inhibition to PI3K signaling was dose-dependent to Compound B.
(§5) Similar studies were conducted with PI3K inhibitors Compounds C and D. PBMC from MF patients had received ruxolitinib (rux) and MF patient had received Compound A. The cells were treated with Compounds C or D at 0, 20.0, 200.0, 2000.0 nM for 2 hours at 37° C. Cells were treated with TPO for 10 minutes. The percentage of basal p-AKT and p-S6RP levels were normalized to vehicle control and those of TPO-treated were normalized to TPO-treated vehicle control. The PI3K inhibitors Compounds C and D had the chemical names of (S)-2-(1-((9H-purin-6-yl)amino)ethyl)-6-fluoro-3-phenylquinazolin-4(3H)-one and (S)-2,4-diamino-6-(((5-chloro-8-fluoro-4-oxo-3-(pyridine-3-yl)-3,4-dihydroquinazolin-2-yl)(cyclopropyl)methyl)amino)pyrimidine-5-carbonitrile, respectively.

[6] = tested on: pS6RP Ser235/236; assay: flow cytometry of S6RP phosphorylation in CD34+ progenitor cells from MF patients; type: cell-based, human; conditions: 2 h, MF progenitor cells
Procedure: as §3, §4, §5

[7] = tested on: pSTAT3 (Tyr705); assay: Western blot of pSTAT3 in IL6-stimulated Pfeiffer cells; type: cell-based; conditions: vs 0 ng/mL IL6, normalized to total STAT3, n=1
Procedure: Pfeiffer cells were stimulated for 4 hours with 0, 1, 3, or 10 ng/mL of interleukin 6 (IL6) (n=1 per group) to activate STAT3 (i.e. increase the levels of pSTAT3). The cells were harvested, lysed and analyzed by Western blot. Antibodies specific for pSTAT3 (Tyr705) and total STAT3 were used to detect the levels of pSTAT3 and total STAT3, respectively. Raw pSTAT3 levels were quantified using densitometry software (Image Studio) and normalized to total STAT3 levels.

[8] = 20 nM, Basal, Compound A-treated Cells, vehicle = 100
[9] = 20 nM, Basal, Rux-treated Cells, vehicle = 100
[10] = 20 nM, TPO 10 min, Compound A-treated Cells, TPO-treated vehicle = 100
[11] = 20 nM, TPO 10 min, Rux-treated Cells, TPO-treated vehicle = 100
[12] = 200 nM, Basal, Compound A-treated Cells, vehicle = 100
[13] = 200 nM, Basal, Rux-treated Cells, vehicle = 100
[14] = 200 nM, TPO 10 min, Compound A-treated Cells, TPO-treated vehicle = 100
[15] = 200 nM, TPO 10 min, Rux-treated Cells, TPO-treated vehicle = 100
[16] = 2000 nM, Basal, Compound A-treated Cells, vehicle = 100
[17] = 2000 nM, Basal, Rux-treated Cells, vehicle = 100
[18] = 2000 nM, TPO 10 min, Compound A-treated Cells, TPO-treated vehicle = 100
[19] = 2000 nM, TPO 10 min, Rux-treated Cells, TPO-treated vehicle = 100

| Molecule | percentage of p-AKT (pAKT) [5, 8] [%] | percentage of p-AKT (pAKT) [5, 9] [%] | percentage of p-AKT (pAKT) [5, 10] [%] | percentage of p-AKT (pAKT) [5, 11] [%] | percentage of p-AKT (pAKT) [5, 12] [%] | percentage of p-AKT (pAKT) [5, 13] [%] | percentage of p-AKT (pAKT) [5, 14] [%] | percentage of p-AKT (pAKT) [5, 15] [%] | percentage of p-AKT (pAKT) [5, 16] [%] | percentage of p-AKT (pAKT) [5, 17] [%] | percentage of p-AKT (pAKT) [5, 18] [%] | percentage of p-AKT (pAKT) [5, 19] [%] | percentage of p-S6RP (pS6) [6, 8] [%] | percentage of p-S6RP (pS6) [6, 9] [%] | percentage of p-S6RP (pS6) [6, 10] [%] | percentage of p-S6RP (pS6) [6, 11] [%] | percentage of p-S6RP (pS6) [6, 12] [%] | percentage of p-S6RP (pS6) [6, 13] [%] | percentage of p-S6RP (pS6) [6, 14] [%] | percentage of p-S6RP (pS6) [6, 15] [%] | other results |
| --- | --- | --- | --- | --- | --- | --- | --- | --- | --- | --- | --- | --- | --- | --- | --- | --- | --- | --- | --- | --- | --- |
| N#CCNC(=O)c1ccc(-c2ccnc(Nc3ccc(N4CCOCC4)cc3)n2)cc1 [Compound A, N-(cyanomethyl)-4-[2-(4-morpholinoanilino)pyrimidin-4-yl]benzamide] |  |  |  |  |  |  |  |  |  |  |  |  |  |  |  |  |  |  |  |  | Cmax ([1]; 300 mg): 0.695 µM; viability at 0.136 µM ([2]; 136 nM Compound A): 104%; viability at 0.272 µM ([2]; 272 nM Compound A): 99%; viability at 0.695 µM ([2]; 695 nM Compound A): 73% |
| N#CC[C@H](C1CCCC1)n1cc(-c2ncnc3[nH]ccc23)cn1 [ruxolitinib, reference compound] |  |  |  |  |  |  |  |  |  |  |  |  |  |  |  |  |  |  |  |  | percentage of the p-STAT5 levels ([3]; ruxolitinib 1 nM): 83% and 94% and 97% and 68% and 91%; percentage of the p-STAT5 levels ([3]; ruxolitinib 20 nM): 77% and 63% and 74% and 71% and 62%; in vitro dose corresponding to the Cmin [1]: 0.001 µM; Cmax ([1]; 15 mg): 0.02 µM; inhibition at 0.02 µM ([4]; Homo sapiens, ruxolitinib 20 nM alone, TPO-stimulated cells, read-out: p-S6RP levels inhibited or reduced by): 69%; pS6RP levels inhibited ([4]; ruxolitinib 1 nM alone, TPO-stimulated cells): not inhibited; percentage of the p-S6RP levels ([4]; ruxolitinib 1 nM): 101% and 78% and 92% and 129% and 75%; percentage of the p-S6RP levels ([4]; ruxolitinib 20 nM): 42% and 25% and 22% and 34% and 28% |
| C[C@H](Nc1ncnc2[nH]cnc12)c1nc2ccc(F)cc2c(=O)n1-c1ccccc1 [Compound C, (S)-2-(1-((9H-purin-6-yl)amino)ethyl)-6-fluoro-3-phenylquinazolin-4(3H)-one] | 89 | 88 | 65 | 65 | 82 | 90 | 59 | 53 | 75 | 75 | 43 | 24 | 82 | 65 | 66 | 84 | 75 | 59 | 70 | 62 | percentage of p-S6RP (pS6) [6, 16]: 53%; percentage of p-S6RP (pS6) [6, 17]: 43%; percentage of p-S6RP (pS6) [6, 18]: 36%; percentage of p-S6RP (pS6) [6, 19]: 42% |
| IL6: interleukin 6 (IL6) used to activate STAT3 in Pfeiffer cells |  |  |  |  |  |  |  |  |  |  |  |  |  |  |  |  |  |  |  |  | increase of pSTAT3 levels (STAT3 activation) ([7]; 1 ng/mL IL6, 4 h): 2.8 fold; increase of pSTAT3 levels (STAT3 activation) ([7]; 3 ng/mL IL6, 4 h): 3.8 fold; increase of pSTAT3 levels (STAT3 activation) ([7]; 10 ng/mL IL6, 4 h): 2.5 fold |
| N#Cc1c(N)nc(N)nc1N[C@H](c1nc2c(F)ccc(Cl)c2c(=O)n1-c1cccnc1)C1CC1 [Compound D, (S)-2,4-diamino-6-(((5-chloro-8-fluoro-4-oxo-3-(pyridine-3-yl)-3,4-dihydroquinazolin-2-yl)(cyclopropyl)methyl)amino)pyrimidine-5-carbonitrile] | 87 | 83 | 49 | 58 | 57 | 85 | 41 | 50 | 60 | 76 | 19 | 39 | 58 | 58 | 74 | 48 | 48 | 50 | 55 | 39 | percentage of p-S6RP (pS6) [6, 16]: 18%; percentage of p-S6RP (pS6) [6, 17]: 39%; percentage of p-S6RP (pS6) [6, 18]: 25%; percentage of p-S6RP (pS6) [6, 19]: 19% |
